pIC50: −log10 of the molar value.
What follows are molecules tested against T1, Acetylcholinesterase (Bos taurus) (UniProt P23795) (assay: Inhibition of bovine erythrocytes AChE using acetylthiocholine iodide as substrate at 100 uM incubated for 15 to 20 mins by Ellman's methods relative to control). Conditions: Erythrocyte, time min 15-20.
T1 sequence (whole entry): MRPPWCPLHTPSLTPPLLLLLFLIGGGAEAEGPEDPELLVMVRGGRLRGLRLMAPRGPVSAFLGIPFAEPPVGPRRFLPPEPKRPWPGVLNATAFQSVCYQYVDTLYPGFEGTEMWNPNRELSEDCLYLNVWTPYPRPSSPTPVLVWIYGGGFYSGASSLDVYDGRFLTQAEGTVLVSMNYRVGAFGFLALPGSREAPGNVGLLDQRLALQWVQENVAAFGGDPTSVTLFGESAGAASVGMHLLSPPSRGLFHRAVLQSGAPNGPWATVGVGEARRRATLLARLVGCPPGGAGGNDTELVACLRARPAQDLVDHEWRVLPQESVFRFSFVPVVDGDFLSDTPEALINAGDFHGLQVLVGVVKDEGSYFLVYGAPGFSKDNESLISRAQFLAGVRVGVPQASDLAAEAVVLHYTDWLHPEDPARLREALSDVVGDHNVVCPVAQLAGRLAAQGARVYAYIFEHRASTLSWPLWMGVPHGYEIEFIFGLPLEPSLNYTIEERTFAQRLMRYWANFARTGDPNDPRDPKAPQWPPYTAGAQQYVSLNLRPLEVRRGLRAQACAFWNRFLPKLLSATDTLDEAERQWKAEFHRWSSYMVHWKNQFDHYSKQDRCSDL
Type: tissue-based
For C[C@H]1CC2=[N+]([O-])CCC[C@]23c2cccnc2C[C@@H]3[C@@H]1O, the inhibition was less than 50%. For C[C@H]1C[C@@]23NCCC[C@@H]2[C@H](Cc2ncccc23)[C@@H]1O, the inhibition was less than 50%. Work on O=c1ccc2c([nH]1)C[C@@H]1C[C@@H](CO)C[C@]23NCCC[C@H]13 yielded an inhibition of less than 50%. With C[C@@H]1C[C@@]2(O)C[C@H](OC(=O)CCc3ccc(O)cc3)[C@@H]3CCCN4CC[C@H]5O[C@@]52[C@]34C1 the inhibition was less than 50%. C[C@H]1C[C@@]23[C@H]4CCCN2CC[C@H]2O[C@]23[C@H](C[C@@H]4OC(=O)CCc2ccc(O)cc2)[C@@H]1O was tested, and the inhibition was less than 50%. C[C@@H]1C[C@H]2Cc3[nH]c(=O)ccc3[C@]3(C1)NCC[C@@H](O)[C@H]23 was tested, and the inhibition was less than 50%. C[C@@H]1C[C@H]2C[C@H](OC(=O)CCc3ccc(O)cc3)[C@@H]3CCCN4CC[C@H]5O[C@]25[C@]34C1 was tested, and the inhibition was less than 50%. C[C@H]1C[C@]23C4=CCCN2CCC[C@H]3[C@@H](O)C[C@@H]4[C@@H]1O gave an inhibition of less than 50%. C[C@@H]1C[C@@]2(O)C[C@@H]3O[C@H]4CC[N+]5([O-])CCC[C@@H]3[C@@]5(C1)[C@]42O (stereo partly specified) showed an inhibition of less than 50%. Work on C[C@H]1C[C@@]23NCCC[C@@H]2[C@](O)(Cc2ncccc23)[C@H]1O yielded an inhibition of less than 50%. CC(=O)NC1=C2CCC[N+]3([O-])CCC[C@]4(O)[C@H](C1)C[C@@H](C)C[C@]243 (stereo partly specified) was tested, and the inhibition was less than 50%. C[C@H]1C=C2N3CCC[C@@H]4C(=O)C[C@H]([C@@H]1O)[C@]24CCC3 showed an inhibition of less than 50%. C[C@@H]1C[C@H]2Cc3[nH]c(=O)ccc3[C@@](N)(C1)/C2=C/CO gave an inhibition of less than 50%. O=C1C[C@@H]2C=C(CO)C[C@@]34[C@@H]1CCCN3CCC[C@H]24 was tested, and the inhibition was less than 50%. C[C@H]1C[C@]23C4=CCCN2CCC[C@@H]3[C@H](O)[C@@H](O)[C@@H]4[C@@H]1O was tested, and the inhibition was less than 50%. C/C=C1\[C@@H]2Cc3[nH]c(=O)ccc3[C@@]1(N)C[C@H](CO)C2 showed an inhibition of less than 50%. CO[C@@]12C[C@@H]3C[C@@H](C)C[C@@]4(O1)N1CCC[C@@]2(O)[C@]34CCC1 showed an inhibition of less than 50%. C[C@@H]1C[C@H]2C[C@@H]3O[C@]24[C@H](O)CCN2CCC[C@@H]3[C@]24C1 was tested, and the inhibition was less than 50%.

Each molecule was assayed against T2, Acetylcholinesterase (Bos taurus, UniProt P23795) (assay: Inhibition of bovine erythrocytes AChE using acetylthiocholine iodide as substrate incubated for 15 to 20 mins by Ellman's methods). Conditions: not given.
T2 sequence (P23795 whole entry): T1 sequence (whole entry)
Design: species or system Erythrocyte
Molecule C/C=C1\[C@H]2C=C(CO)C[C@]1(N)c1ccc(=O)[nH]c1C2 has a pIC50 of 5.68. Work on C/C=C1\[C@H]2C=C(C(=O)OC)C[C@]1(N)c1ccc(=O)[nH]c1C2 yielded a pIC50 of 5.38. For C/C=C1\[C@H]2C=C(C)C[C@]1(N)c1ccc(=O)[nH]c1C2 [HUPERZINE A], the pIC50 was 7.00.

— ChEMBL document CHEMBL4699505, “Lycosquarrines A-R, Lycopodium Alkaloids from Phlegmariurus squarrosus” (J Nat Prod, 2020)
